SMILES strings stand for the structures.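 Briefly, cells in 96-well plates were exposed to five compound concentrations for 48 h, and endpoints were estimated by linear interpolation. GI50 = concentration required for 50% inhibition of growth.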 Active and inactive are the calls of the source. No stated cut-off is given here; in the data, active = GI50 up to about 1.1 µM and inactive = higher. Some results are limits rather than exact numbers.

The record followed here is ChEMBL document CHEMBL1201862, “PubChem BioAssay data set” (2004).

Test systems include ACHN; CAKI-1; EKVX; HCC 2998; HCT-15; HT-29; K562; KM-20L2; NCI-H226; SF-295; SK-MEL-28; SK-OV-3; SW-620; UACC-257; NCI-H522; A498; BT-549; HL-60; MDA-N; NCI/ADR-RES.
Assay in all cases: growth of human tumour cells (NCI), 48 h

For the compound `Cc1c2cc[n+](C)cc2c(C)c2c1[nH]c1ccc(Oc3ccccc3)cc12`, the GI50 in the test on ACHN is 2.48 µM (inactive); in the test with CAKI-1 it was 2.12 µM (inactive); in the test on EKVX, 3.08 µM (inactive); in the test with HCC 2998 it was 3.18 µM (inactive); in the test on HCT-15, 4.69 µM; in the test on HT-29 it was 0.843 µM (active). The GI50 was 0.665 µM (active) with K562; 0.927 µM (active) in the test on KM-20L2; 0.544 µM (active) in the test on NCI-H226; 0.294 µM (active) in the test on SF-295; 2.89 µM (inactive) in the test on SK-MEL-28; 1.14 µM (inactive) in the test with SK-OV-3. Moreover, the GI50 was 0.537 µM (active) in the test on SW-620 and 1.28 µM (inactive) with UACC-257.
On to `COc1ccc2nc(NC(=O)C(=O)C(C#N)c3ccc([N+](=O)[O-])cc3)sc2c1` (stereo not drawn), for which the GI50 with ACHN was > 100 µM (inactive); in the test on CAKI-1 it was > 100 µM (inactive); in the test on EKVX it was 31.9 µM (inactive); in the test on HCC 2998 it was > 100 µM (inactive); in the test with HCT-15 it was above 100 µM; in the test with HT-29, > 100 µM (inactive). The GI50 in the test on K562 is 72.1 µM (inactive); in the test on KM-20L2, > 100 µM (inactive); in the test on NCI-H226 it was > 100 µM (inactive); in the test on NCI-H522, 55.5 µM (inactive); in the test with SF-295, > 100 µM (inactive); with SK-MEL-28 it was > 100 µM (inactive). Besides, the GI50 with SK-OV-3, in the test with SW-620 and with UACC-257 was > 100 µM (inactive) each time.
Regarding `O=C(O)COc1cc(-c2ccccc2)nc2ccccc12`, the GI50 was 65.3 µM (inactive) with A498; > 100 µM (inactive) with ACHN; > 100 µM (inactive) in the test with BT-549; > 100 µM (inactive) in the test on CAKI-1; > 100 µM (inactive) with EKVX; > 100 µM (inactive) with HCC 2998. Also, the GI50 with HCT-15 was 36.9 µM; with HL-60, 41.2 µM (inactive); in the test on HT-29, 35.4 µM (inactive); with K562, 36.8 µM (inactive); in the test on MDA-N, 26.1 µM (inactive); in the test with NCI-H226, > 100 µM (inactive). For the same compound, the GI50 with NCI-H522 is 77.4 µM (inactive); with NCI/ADR-RES it was 52.1 µM (inactive); in the test with SF-295, 44.4 µM (inactive); with SK-MEL-28, 73.3 µM (inactive); with SK-OV-3 it was 73.3 µM (inactive); in the test on SW-620, 59.7 µM (inactive). For the same compound, in the test with UACC-257, the GI50 was > 100 µM (inactive).
For the compound `CC(CCC(=O)O)c1ccc(Br)cc1` (stereo not drawn), the GI50 is > 100 µM (inactive) with ACHN; > 100 µM (inactive) in the test on CAKI-1; > 100 µM (inactive) in the test with EKVX; > 100 µM (inactive) in the test with HCC 2998; above 100 µM in the test on HCT-15; > 100 µM (inactive) in the test with HL-60. The GI50 with HT-29, in the test on K562, in the test on KM-20L2, in the test on NCI-H226, with NCI-H522 and in the test on SF-295 was > 100 µM (inactive) throughout. The GI50 in the test on SK-MEL-28, with SK-OV-3, in the test with SW-620 and in the test with UACC-257 was > 100 µM (inactive) in each case.
In the case of `O=C1NC(=S)N(c2cccc3ccccc23)C(=O)/C1=C/c1c[nH]c2ccccc12`, the GI50 is 2.05 µM (inactive) with A498; 2.37 µM (inactive) in the test on ACHN; 1.79 µM (inactive) with BT-549; 2.54 µM (inactive) in the test on CAKI-1; 2.06 µM (inactive) with EKVX; 1.87 µM (inactive) in the test with HCC 2998. Moreover, the GI50 in the test on HCT-15 is 1.67 µM; in the test with HL-60, 2.21 µM (inactive); with HT-29 it was 2.17 µM (inactive); with K562, 2.38 µM (inactive); with MDA-N, 2.1 µM (inactive); in the test on NCI-H226, 2.42 µM (inactive). Also, the GI50 is 2.78 µM (inactive) in the test on NCI-H522; 3 µM (inactive) in the test on NCI/ADR-RES; 3.07 µM (inactive) with SF-295; 2.26 µM (inactive) in the test with SK-MEL-28; 4.02 µM (inactive) in the test on SK-OV-3; 2.25 µM (inactive) with SW-620. Besides, in the test with UACC-257, the GI50 was 2.31 µM (inactive).
